From ChEMBL document CHEMBL1128072, “The synthesis and biological evaluation of hypericin analogs” (Bioorg Med Chem Lett, 1995)
Active and inactive are the calls of the source. The calls are words filed in the database; no cut-off is given here.

Assays:
[1] = system: Equine infectious anemia virus; experiment: In vitro anti-retroviral activity against equine infectious anemia virus(EIAV); compound was active; assay type: functional, organism-based
[2] = system: Equine infectious anemia virus; experiment: In vitro anti-retroviral activity against equine infectious anemia virus(EIAV); Inactive; assay type: functional, organism-based

SMILES	Activity [1]	Activity [2]
Cc1cc(O)c2c(=O)c3c(O)cc(O)c4c5c(O)cc(O)c6c(=O)c7c(O)cc(C)c8c1c2c(c34)c(c78)c65	Active	
Cc1c(O)c2c(=O)c3c(O)c(C)c(O)c4c5c(O)c(C)c(O)c6c(=O)c7c(O)c(C)c(O)c8c(c1O)c2c(c34)c(c78)c65		inactive
COc1cc(O)c2c(=O)c3c(O)cc(O)c4c5c(O)cc(O)c6c(=O)c7c(O)cc(OC)c8c1c2c(c34)c(c65)c78	Active	
O=c1c2c(O)cc(O)c3c4c(O)cc(O)c5c(=O)c6c(O)cc(O)c7c8c(O)cc(O)c1c8c(c23)c(c54)c67		inactive
